Measured values reported in ChEMBL document CHEMBL3992552, “Mechanisms of action and structure-activity relationships of cytotoxic flavokawain derivatives” (Bioorg Med Chem, 2017).
Active and inactive are the calls of the source. The rule behind the calls is not given here.

What was measured:
MDA-MB-231 [1] = experiment: Cytotoxicity against human MDA-MB-231 cells assessed as cell survival at 50 uM after 48 hrs by Hoechst 33342 staining based assay relative to control; type: functional; conditions: MDA-MB-231, 48 h, read-out: Survival
PC-3 [2] = experiment: Cytotoxicity against human PC3 cells assessed as cell survival at 50 uM after 48 hrs by Hoechst 33342 staining based assay relative to control; type: functional; conditions: PC-3, 48 h, read-out: Survival
HCT-116 [3] = experiment: Cytotoxicity against human HCT116 cells assessed as cell survival at 50 uM after 48 hrs by Hoechst 33342 staining based assay relative to control; type: functional; conditions: HCT-116, 48 h, read-out: Survival
Caco-2 [4] = experiment: Cytotoxicity against human Caco2 cells assessed as cell survival at 50 uM after 48 hrs by Hoechst 33342 staining based assay relative to control; type: functional; conditions: Caco-2, 48 h, read-out: Survival
HaCaT [5] = experiment: Cytotoxicity against human HaCaT cells assessed as cell survival at 50 uM after 48 hrs by Hoechst 33342 staining based assay relative to control; type: functional; conditions: read-out: Survival
NCI-H727 [6] = experiment: Cytotoxicity against human NCI-H727 cells assessed as cell survival at 50 uM after 48 hrs by Hoechst 33342 staining based assay relative to control; type: functional; conditions: NCI-H727, 48 h, read-out: Survival
Huh-7 [7] = experiment: Cytotoxicity against human HuH7 cells assessed as cell survival at 50 uM after 48 hrs by Hoechst 33342 staining based assay relative to control; type: functional; conditions: Huh-7, 48 h, read-out: Survival
[8] = Cytotoxicity against human fibroblasts assessed as cell survival at 50 uM after 48 hrs by Hoechst 33342 staining based assay relative to control; parameters: species or system Fibroblast; conditions: read-out: Survival
HCT-116 [9] = experiment: Cytotoxicity against human HCT116 cells assessed as cell viability after 48 hrs by Hoechst 33342 staining based assay; type: functional; conditions: HCT-116, 48 h
[10] = Selectivity index, ratio of IC50 for human fibroblasts to IC50 for human HuH7 cells
[11] = Selectivity index, ratio of IC50 for human fibroblasts to IC50 for human MDA-MB-231 cells
MCF7 [12] = experiment: Cytotoxicity against human MCF7 assessed as cell viability after 48 hrs by Hoechst 33342 staining based assay; type: functional; conditions: MCF7, 48 h
[13] = Selectivity index, ratio of IC50 for human fibroblasts to IC50 for human HCT116 cells
[14] = Selectivity index, ratio of IC50 for human fibroblasts to IC50 for human Caco2 cells
NCI-H727 [15] = experiment: Cytotoxicity against human NCI-H727 cells assessed as cell viability after 48 hrs by Hoechst 33342 staining based assay; type: functional; conditions: NCI-H727, 48 h
[16] = Selectivity index, ratio of IC50 for human fibroblasts to IC50 for human NCI-H727 cells
PC-3 [17] = experiment: Cytotoxicity against human PC3 cells assessed as cell viability after 48 hrs by Hoechst 33342 staining based assay; type: functional; conditions: PC-3, 48 h
[18] = Selectivity index, ratio of IC50 for human fibroblasts to IC50 for human HaCaT cells
Huh-7 [19] = experiment: Cytotoxicity against human HuH7 cells assessed as cell viability after 48 hrs by Hoechst 33342 staining based assay; type: functional; conditions: Huh-7, 48 h
MDA-MB-231 [20] = experiment: Cytotoxicity against human MDA-MB-231 cells assessed as cell viability after 48 hrs by Hoechst 33342 staining based assay; type: functional; conditions: MDA-MB-231, 48 h
HaCaT [21] = experiment: Cytotoxicity against human HaCaT cells assessed as cell viability after 48 hrs by Hoechst 33342 staining based assay; type: functional
Fibroblast = experiment: Cytotoxicity against human fibroblasts assessed as cell viability after 48 hrs by Hoechst 33342 staining based assay
[22] = Selectivity index, ratio of IC50 for human fibroblasts to IC50 for human RL cells
Caco-2 [23] = experiment: Cytotoxicity against human Caco2 cells assessed as cell viability after 48 hrs by Hoechst 33342 staining based assay; type: functional; conditions: Caco-2, 48 h
[24] = Selectivity index, ratio of IC50 for human fibroblasts to IC50 for human MCF7 cells
[25] = Selectivity index, ratio of IC50 for human fibroblasts to IC50 for human PC3 cells
RL = experiment: Cytotoxicity against human RL assessed as cell viability after 48 hrs by Hoechst 33342 staining based assay; type: functional
MDA-MB-231 [26] = experiment: Induction of apoptosis in human MDA-MB-231 cells harboring p53 mutant assessed as increase in early apoptosis at 2 times IC50 after 24 hrs by YoPro/propidium iodide/Hoechst staining based assay; type: functional, cell-based
PC-3 [27] = experiment: Induction of apoptosis in human PC3 cells harboring p53 mutant assessed as increase in early apoptosis at 2 times IC50 after 48 hrs by YoPro/propidium iodide/Hoechst staining based assay; type: functional, cell-based
PC-3 [28] = experiment: Induction of apoptosis in human PC3 cells harboring p53 mutant assessed as upregulation of cyclinB1 after 48 hrs by Hoechst staining based assay; type: functional, cell-based
HCT-116 [29] = experiment: Induction of apoptosis in human HCT116 cells harboring wild-type p53 assessed as upregulation of p21 measured after 48 hrs by Hoechst staining based fluorescence assay; type: functional, cell-based
PC-3 [30] = experiment: Induction of apoptosis in human PC3 cells harboring p53 mutant assessed as increase in cleaved caspase3 at 2 times IC50 after 48 hrs by Hoechst staining based assay; type: functional, cell-based
MDA-MB-231 [31] = experiment: Induction of apoptosis in human MDA-MB-231 cells harboring p53 mutant assessed as upregulation of cyclinB1 after 18 hrs by Hoechst staining based assay; type: functional, cell-based
HCT-116 [32] = experiment: Induction of apoptosis in human HCT116 cells harboring wild-type p53 assessed as increase in cleaved caspase3 at 2 times IC50 after 48 hrs by Hoechst staining based assay; type: functional, cell-based
MDA-MB-231 [33] = experiment: Induction of apoptosis in human MDA-MB-231 cells harboring p53 mutant assessed as increase in late apoptosis at 2 times IC50 after 24 hrs by YoPro/propidium iodide/Hoechst staining based assay; type: functional, cell-based
MCF7 [34] = experiment: Induction of apoptosis in human MCF7 cells harboring wild-type p53 assessed as upregulation of cyclinB1 measured after 18 hrs by Hoechst staining based assay; type: functional, cell-based
MCF7 [35] = experiment: Induction of apoptosis in human MCF7 cells harboring wild-type p53 assessed as increase in early apoptosis at 2 times IC50 after 24 hrs by YoPro/propidium iodide/Hoechst staining based assay; type: functional, cell-based
MCF7 [36] = experiment: Induction of apoptosis in human MCF7 cells harboring wild-type p53 assessed as upregulation of p21 measured after 48 hrs by Hoechst staining based fluorescence assay; type: functional, cell-based
HCT-116 [37] = experiment: Induction of apoptosis in human HCT116 cells harboring wild-type p53 assessed as increase in late apoptosis at 2 times IC50 after 48 hrs by YoPro/propidium iodide/Hoechst staining based assay; type: functional, cell-based
HCT-116 [38] = experiment: Induction of apoptosis in human HCT116 cells harboring wild-type p53 assessed as upregulation of cyclinB1 measured after 48 hrs by Hoechst staining based assay; type: functional, cell-based
MCF7 [39] = experiment: Induction of apoptosis in human MCF7 cells harboring wild-type p53 assessed as increase in late apoptosis at 2 times IC50 after 24 hrs by YoPro/propidium iodide/Hoechst staining based assay; type: functional, cell-based
HCT-116 [40] = experiment: Induction of apoptosis in human HCT116 cells harboring wild-type p53 assessed as increase in early apoptosis at 2 times IC50 after 48 hrs by YoPro/propidium iodide/Hoechst staining based assay; type: functional, cell-based
MDA-MB-231 [41] = experiment: Induction of apoptosis in human MDA-MB-231 cells harboring p53 mutant assessed as increase in cleaved caspase3 at 2 times IC50 after 24 hrs by Hoechst staining based assay; type: functional, cell-based
PC-3 [42] = experiment: Induction of apoptosis in human PC3 cells harboring p53 mutant assessed as increase in late apoptosis at 2 times IC50 after 48 hrs by YoPro/propidium iodide/Hoechst staining based assay; type: functional, cell-based

| Compound | viability at 50 µM (MDA-MB-231 [1]) | viability at 50 µM (PC-3 [2]) | viability at 50 µM (HCT-116 [3]) | viability at 50 µM (Caco-2 [4]) | viability at 50 µM (HaCaT [5]) | viability at 50 µM (NCI-H727 [6]) | viability at 50 µM (Huh-7 [7]) | viability at 48 h, 50 µM [8] | other results |
| --- | --- | --- | --- | --- | --- | --- | --- | --- | --- |
| COc1cc(OC)c(C(=O)/C=C/c2ccc(C(=O)O)cc2)c(OC)c1 | 68% | 39% | 7% | 25% | 59% | 23% | 38% | 57% | – |
| COc1cc(O)c(C(=O)/C=C/c2ccc(C(=O)O)cc2)c(OC)c1 | > 80% | > 80% | > 80% | > 80% | > 80% | > 80% | > 80% | > 80% | – |
| COc1cc(OC)c(C(=O)/C=C/c2ccccc2OC)c(OC)c1 | 11% | 32% | 0% | 5% | 23% | 1% | 6% | 77% | IC50 (HCT-116 [9]): 4.2 µM; Ratio IC50 [10]: 0.8; Ratio IC50 [11]: 0.6; IC50 (MCF7 [12]): 8.9 µM; Ratio IC50 [13]: 2; Ratio IC50 [14]: 1.8; IC50 (NCI-H727 [15]): 4 µM; Ratio IC50 [16]: 2.1; IC50 (PC-3 [17]): 8.1 µM; Ratio IC50 [18]: 0.9; IC50 (Huh-7 [19]): 9.8 µM; IC50 (MDA-MB-231 [20]): 13 µM; IC50 (HaCaT [21]): 8.7 µM; IC50 (Fibroblast): 8.2 µM; Ratio IC50 [22]: 0.9; IC50 (Caco-2 [23]): 4.5 µM; Ratio IC50 [24]: 0.9; Ratio IC50 [25]: 1; IC50 (RL): 9 µM |
| COc1cc(O)c(C(=O)/C=C/c2ccc(Br)cc2)c(OC)c1 | > 80% | 58% | > 80% | > 80% | 66% | 72% | > 80% | > 80% | Activity (MDA-MB-231 [26]): inactive; Activity (PC-3 [27]): inactive; Activity (PC-3 [28]): inactive; Activity (HCT-116 [29]): inactive; Activity (PC-3 [30]): inactive; Activity (MDA-MB-231 [31]): inactive; Activity (HCT-116 [32]): inactive; Activity (MDA-MB-231 [33]): inactive; Activity (MCF7 [34]): inactive; Activity (MCF7 [35]): inactive; Activity (MCF7 [36]): inactive; Activity (HCT-116 [37]): inactive; Activity (HCT-116 [38]): inactive; Activity (MCF7 [39]): inactive; Activity (HCT-116 [40]): inactive; Activity (MDA-MB-231 [41]): inactive; Activity (PC-3 [42]): inactive |
| COc1cc(OC)c(C(=O)/C=C/c2ccc(O)cc2)c(OC)c1 | 32% | 33% | 17% | 24% | 16% | 42% | 45% | 65% | – |
| COc1ccc(/C=C/C(=O)c2c(O)cc(OC)cc2OC)cc1 [FLAVOKAWAIN A] | 58% | 43% | 20% | 32% | 35% | 40% | 50% | 67% | – |
| COc1cc(O)c(C(=O)/C=C/c2ccc(N(C)C)cc2)c(OC)c1 | > 80% | > 80% | > 80% | > 80% | > 80% | > 80% | > 80% | > 80% | – |
| COc1cc(O)c(C(=O)/C=C/c2ccc(Cl)cc2)c(OC)c1 | > 80% | > 80% | > 80% | > 80% | > 80% | > 80% | > 80% | > 80% | – |
